Data from patent publication US10004701B2, “Methods and compositions for treating infection” (UNIVERSITY OF ROCHESTER, priority 2012, dated 2018).
Where a name gives a salt, the structure may show the parent alone. Read-outs that look alike come from different tables or passages of the source.

Columns and labels:
Test in all cases: AK assay 384-well format, Prestwick library screening
P. aeruginosa = format: cell-based, Pseudomonas aeruginosa; details: Pseudomonas aeruginosa, 3 h, 50 μM final drug concentration
E. cloacae = format: cell-based, Enterobacter cloacae; details: Enterobacter cloacae, 3 h, 50 μM final drug concentration
E. coli = format: cell-based, Escherichia coli; details: Escherichia coli, 3 h, 50 μM final drug concentration
[1] = tested on: S. aureus strain USA300-0114; format: cell-based, Staphylococcus aureus; details: Staphylococcus aureus, USA300, 3 h, 50 μM final drug concentration
[2] = tested on: A. baumannii strain 98-37-09; format: cell-based, Acinetobacter baumannii; details: Acinetobacter baumannii, 983709, 3 h, 50 μM final drug concentration
E. faecium = format: cell-based, Enterococcus faecium; details: Enterococcus faecium, 3 h, 50 μM final drug concentration
K. pneumoniae = format: cell-based, Klebsiella pneumoniae; details: Klebsiella pneumoniae, 3 h, 50 μM final drug concentration
[3] = 384-well format, cutoff for positive-scoring molecules 3-fold increase, read-out: AK-based Prestwick Library Screening Results, P. aeruginosa (increase in extracellular AK activity)
[4] = 384-well format, cutoff for positive-scoring molecules 3-fold increase, read-out: AK-based Prestwick Library Screening Results, E. cloacae (increase in extracellular AK activity)
[5] = 384-well format, cutoff for positive-scoring molecules 3-fold increase, read-out: AK-based Prestwick Library Screening Results, E. coli (increase in extracellular AK activity)
[6] = 384-well format, cutoff for positive-scoring molecules 3-fold increase, read-out: AK-based Prestwick Library Screening Results, S. aureus (increase in extracellular AK activity)
[7] = 384-well format, cutoff for positive-scoring molecules 3-fold increase, read-out: AK-based Prestwick Library Screening Results, A. baumannii (increase in extracellular AK activity)
[8] = 384-well format, cutoff for positive-scoring molecules 3-fold increase, read-out: AK-based Prestwick Library Screening Results, E. faecium (increase in extracellular AK activity)
[9] = 384-well format, cutoff for positive-scoring molecules 3-fold increase, read-out: AK-based Prestwick Library Screening Results, K. pneumoniae (increase in extracellular AK activity)

Structure (SMILES): CN[C@@H]1[C@H](O)[C@H](NC)[C@H]2O[C@@]3(O)C(=O)C[C@@H](C)O[C@H]3O[C@@H]2[C@H]1O [Spectinomycin dihydrochloride]
- fold induction at 50 µM (P. aeruginosa; planktonic, cutoff for positive-scoring molecules 3-fold increase, read-out: AK-based Prestwick Library Screening Results, P. aeruginosa (fold increase in extracellular AK activity)): 0.5
- fold induction at 50 µM (E. cloacae; planktonic, cutoff for positive-scoring molecules 3-fold increase, read-out: AK-based Prestwick Library Screening Results, E. cloacae (fold increase in extracellular AK activity)): 0.6
- fold induction at 50 µM (E. coli; planktonic, cutoff for positive-scoring molecules 3-fold increase, read-out: AK-based Prestwick Library Screening Results, E. coli (fold increase in extracellular AK activity)): 0.6
- fold induction at 50 µM ([1]; planktonic, cutoff for positive-scoring molecules 3-fold increase, read-out: AK-based Prestwick Library Screening Results, S. aureus (fold increase in extracellular AK activity)): 0.6
- fold induction at 50 µM ([2]; planktonic, cutoff for positive-scoring molecules 3-fold increase, read-out: AK-based Prestwick Library Screening Results, A. baumannii (fold increase in extracellular AK activity)): 0.5
- fold induction at 50 µM (E. faecium; planktonic, cutoff for positive-scoring molecules 3-fold increase, read-out: AK-based Prestwick Library Screening Results, E. faecium (fold increase in extracellular AK activity)): 1
- fold induction at 50 µM (K. pneumoniae; planktonic, cutoff for positive-scoring molecules 3-fold increase, read-out: AK-based Prestwick Library Screening Results, K. pneumoniae (fold increase in extracellular AK activity)): 0.2

Structure (SMILES): COc1ccc([C@@H]2CC(=O)c3c(O)cc(O)cc3O2)cc1O [Hesperetin]
- fold induction at 50 µM (P. aeruginosa; [3]): 0.9
- fold induction at 50 µM (E. cloacae; [4]): 1.3
- fold induction at 50 µM (E. coli; [5]): 1.1
- fold induction at 50 µM [1, 6]: 0.5
- fold induction at 50 µM [2, 7]: 1.1
- fold induction at 50 µM (E. faecium; [8]): 0.9
- fold induction at 50 µM (K. pneumoniae; [9]): 0.9

Structure (SMILES): NCCc1cc[nH]n1 [Betazole hydrochloride]
- fold induction at 50 µM (P. aeruginosa; [3]): 1
- fold induction at 50 µM (E. cloacae; [4]): 1.4
- fold induction at 50 µM (E. coli; [5]): 1.3
- fold induction at 50 µM [1, 6]: 1.2
- fold induction at 50 µM [2, 7]: 1.2
- fold induction at 50 µM (E. faecium; [8]): 1
- fold induction at 50 µM (K. pneumoniae; [9]): 0.9

Structure (SMILES): CN[C@@H]1[C@@H](O[C@H]2O[C@H](CO)[C@@H](N)[C@H](O)[C@H]2O)OC2C[C@@H](N)[C@@H](O[C@H]3[C@H](O)[C@@H](O)[C@H](N)C[C@@H]3N)OC2[C@@H]1O (some centres unmarked) [Apramycin]
- fold induction at 50 µM (P. aeruginosa; planktonic P. aeruginosa, positive cutoff 3-fold increase, read-out: AK-based Prestwick library screening result, P. aeruginosa (fold increase in extracellular AK activity)): 1.1
- fold induction at 50 µM (E. cloacae; planktonic E. cloacae, positive cutoff 3-fold increase, read-out: AK-based Prestwick library screening result, E. cloacae (fold increase in extracellular AK activity)): 1.4
- fold induction at 50 µM (E. coli; planktonic E. coli, positive cutoff 3-fold increase, read-out: AK-based Prestwick library screening result, E. coli (fold increase in extracellular AK activity)): 1.2
- fold induction at 50 µM ([1]; planktonic S. aureus, positive cutoff 3-fold increase, read-out: AK-based Prestwick library screening result, S. aureus (fold increase in extracellular AK activity)): 0.9
- fold induction at 50 µM ([2]; planktonic A. baumannii, positive cutoff 3-fold increase, read-out: AK-based Prestwick library screening result, A. baumannii (fold increase in extracellular AK activity)): 1
- fold induction at 50 µM (E. faecium; planktonic E. faecium, positive cutoff 3-fold increase, read-out: AK-based Prestwick library screening result, E. faecium (fold increase in extracellular AK activity)): 1
- fold induction at 50 µM (K. pneumoniae; planktonic K. pneumoniae, positive cutoff 3-fold increase, read-out: AK-based Prestwick library screening result, K. pneumoniae (fold increase in extracellular AK activity)): 0.8

Structure (SMILES): CC1=C2[C@H]3OC(=O)[C@@H](C)[C@@H]3CC[C@@]2(C)C=CC1=O [alpha-Santonin]
- fold induction at 50 µM (P. aeruginosa; planktonic P. aeruginosa, […], read-out: AK-based Prestwick library screening result, P. aeruginosa (fold increase in extracellular AK activity)): 0.9
- fold induction at 50 µM (E. cloacae; planktonic E. cloacae, […], read-out: AK-based Prestwick library screening result, E. cloacae (fold increase in extracellular AK activity)): 0.9
- fold induction at 50 µM (E. coli; planktonic E. coli, […], read-out: AK-based Prestwick library screening result, E. coli (fold increase in extracellular AK activity)): 0.8
- fold induction at 50 µM ([1]; planktonic S. aureus, […], read-out: AK-based Prestwick library screening result, S. aureus (fold increase in extracellular AK activity)): 0.9
- fold induction at 50 µM ([2]; planktonic A. baumannii, […], read-out: AK-based Prestwick library screening result, A. baumannii (fold increase in extracellular AK activity)): 0.8
- fold induction at 50 µM (E. faecium; planktonic E. faecium, […], read-out: AK-based Prestwick library screening result, E. faecium (fold increase in extracellular AK activity)): 1
- fold induction at 50 µM (K. pneumoniae; planktonic K. pneumoniae, […], read-out: AK-based Prestwick library screening result, K. pneumoniae (fold increase in extracellular AK activity)): 0.7

Structure (SMILES): CCOC(=O)NNc1nncc2ccccc12 [Todralazine hydrochloride]
- fold induction at 50 µM (P. aeruginosa; planktonic P. aeruginosa, 384-well, cutoff for positive-scoring molecules 3-fold increase, read-out: AK-based Prestwick Library Screening Results: P. aeruginosa (increase in extracellular AK activity)): 1.1
- fold induction at 50 µM (E. cloacae; planktonic E. cloacae, 384-well, cutoff for positive-scoring molecules 3-fold increase, read-out: AK-based Prestwick Library Screening Results: E. cloacae (increase in extracellular AK activity)): 1.7
- fold induction at 50 µM (E. coli; planktonic E. coli, 384-well, cutoff for positive-scoring molecules 3-fold increase, read-out: AK-based Prestwick Library Screening Results: E. coli (increase in extracellular AK activity)): 1.3
- fold induction at 50 µM ([1]; planktonic S. aureus, 384-well, cutoff for positive-scoring molecules 3-fold increase, read-out: AK-based Prestwick Library Screening Results: S. aureus (increase in extracellular AK activity)): 1.3
- fold induction at 50 µM ([2]; planktonic A. baumannii, 384-well, cutoff for positive-scoring molecules 3-fold increase, read-out: AK-based Prestwick Library Screening Results: A. baumannii (increase in extracellular AK activity)): 1.1
- fold induction at 50 µM (E. faecium; planktonic E. faecium, 384-well, cutoff for positive-scoring molecules 3-fold increase, read-out: AK-based Prestwick Library Screening Results: E. faecium (increase in extracellular AK activity)): 0.8
- fold induction at 50 µM (K. pneumoniae; planktonic K. pneumoniae, 384-well, cutoff for positive-scoring molecules 3-fold increase, read-out: AK-based Prestwick Library Screening Results: K. pneumoniae (increase in extracellular AK activity)): 1

Structure (SMILES): OC(c1ccccc1)(c1ccccc1)C1CCNCC1 [Azacyclonol]
- fold induction at 50 µM (P. aeruginosa; 384-well format, […], read-out: AK-based Prestwick Library Screening Results, P. aeruginosa (increase in extracellular AK activity)): 0.6
- fold induction at 50 µM (E. cloacae; 384-well format, […], read-out: AK-based Prestwick Library Screening Results, E. cloacae (increase in extracellular AK activity)): 0.9
- fold induction at 50 µM (E. coli; 384-well format, […], read-out: AK-based Prestwick Library Screening Results, E. coli (increase in extracellular AK activity)): 0.6
- fold induction at 50 µM ([1]; 384-well format, […], read-out: AK-based Prestwick Library Screening Results, S. aureus (increase in extracellular AK activity)): 0.7
- fold induction at 50 µM ([2]; 384-well format, […], read-out: AK-based Prestwick Library Screening Results, A. baumannii (increase in extracellular AK activity)): 0.6
- fold induction at 50 µM (E. faecium; 384-well format, […], read-out: AK-based Prestwick Library Screening Results, E. faecium (increase in extracellular AK activity)): 0.9
- fold induction at 50 µM (K. pneumoniae; 384-well format, […], read-out: AK-based Prestwick Library Screening Results, K. pneumoniae (increase in extracellular AK activity)): 0.6

Structure (SMILES): NC(CO)C(=O)NNCc1ccc(O)c(O)c1O (centres unmarked) [Benserazide hydrochloride]
- fold induction at 50 µM (P. aeruginosa; cutoff for positive-scoring molecules 3-fold increase, read-out: AK-based Prestwick Library Screening Results, P. aeruginosa (fold increase in extracellular AK activity)): 1.1
- fold induction at 50 µM (E. cloacae; cutoff for positive-scoring molecules 3-fold increase, read-out: AK-based Prestwick Library Screening Results, E. cloacae (fold increase in extracellular AK activity)): 1.8
- fold induction at 50 µM (E. coli; cutoff for positive-scoring molecules 3-fold increase, read-out: AK-based Prestwick Library Screening Results, E. coli (fold increase in extracellular AK activity)): 1.3
- fold induction at 50 µM ([1]; cutoff for positive-scoring molecules 3-fold increase, read-out: AK-based Prestwick Library Screening Results, S. aureus (fold increase in extracellular AK activity)): 1.4
- fold induction at 50 µM ([2]; cutoff for positive-scoring molecules 3-fold increase, read-out: AK-based Prestwick Library Screening Results, A. baumannii (fold increase in extracellular AK activity)): 1
- fold induction at 50 µM (E. faecium; cutoff for positive-scoring molecules 3-fold increase, read-out: AK-based Prestwick Library Screening Results, E. faecium (fold increase in extracellular AK activity)): 0.9
- fold induction at 50 µM (K. pneumoniae; cutoff for positive-scoring molecules 3-fold increase, read-out: AK-based Prestwick Library Screening Results, K. pneumoniae (fold increase in extracellular AK activity)): 1.2
